Data from PMC8950706, “Influence of Substitutions in the Binding Motif of Proline-Rich Antimicrobial Peptide ARV-1502 on 70S Ribosome Binding and Antimicrobial Activity” (International Journal of Molecular Sciences, 2022).
Counter-ions that a name gives are not always drawn.

How the values were obtained:
[1] = test system: E. coli 70S ribosome; experiment: Competitive fluorescence polarization assay against Cf-ARV-1502 (Ki); assay type: binding, E. coli BW25113; conditions: 20 nmol/L Cf-ARV-1502, 0.5 µmol/L ribosome, 28 °C, 90 min + 90 min, Ki calculated from IC50; for Ki: read-out: Ki (nmol/L), competition with Cf-ARV-1502
Procedure: E. coli 70S ribosomes were prepared using a previously described protocol that was slightly modified. Briefly, E. coli BW25113 was cultivated in Luria-Bertani (LB) medium and cells were harvested after reaching an optical density of ~4 at 600 nm by centrifugation (5000× g, 15 min, 4 °C, Rotor JLA 8.100, Avanti J-20 XP, Beckmann Coulter, Krefeld, Germany). The cell pellets were frozen and stored at −80 °C. Cells were resuspended in ribosome buffer (2 mL/g cells; 20 mmol/L HEPES-KOH, 6 mmol/L MgCl2, 30 mmol/L NH4Cl, 4 mmol/L 2-mercaptoethanol, pH 7.6). Lysozyme (0.25 g/L cell suspension) was added, and the mixture was incubated on ice for 30 min. Cells were disrupted using the bead mill homogenizer FastPrep-24™ 5G (40 s, 4 m/s, 6 cycles, MP Biomedicals Germany GmbH, Eschwege, Germany) and zirconia/silica beads (0.1 mm diameter). The lysate was centrifuged (1500× g, 5 min, 4 °C, Rotor S4180, Allegra 21R, Beckmann Coulter) and the supernatant was incubated with DNase (5 U/mL) on ice for 60 min.
Dissociation and inhibitory constants were determined in black 384-well-plates (Greiner Bio-One GmbH, Frickenhausen, Germany) blocked with 0.5% (w/v) casein in phosphate buffered saline (PBS, 8.8 mmol/L Na2HPO4×12 H2O, 1.2 mmol/L KH2PO4, 0.3 mol/L NaCl, pH 7.4) containing 0.05% (w/v) Tween® 20 (PBST) overnight at 4 °C and washed three times with PBST.
Ribosome solution was added (10 µmol/L) and the plate was incubated after centrifugation (2 min, 500× g, Rotor S2096, Allegra^TM 21R, Beckmann Coulter) at 28 °C for 90 min. Cf-labeled peptide was added (10 µL; final concentration of 20 nmol/L; final ribosome concentration of 0.5 µmol/L) and the plate was centrifuged and incubated again (90 min, 28 °C, dark). […] Kd and IC50 values were calculated by fitting the data with a variable slope parameter [y = min + (max − min)/(1 + (x/Kd) ^−Hill slope) ] using SigmaPlot 13 (Systat Software Inc., San Jose, CA, USA). The obtained IC50 values were used to calculate the Ki values.

[2] = test system: E. coli BW25113; experiment: Checkerboard assay (FICI); assay type: cell-based, Escherichia coli; conditions: E. coli BW25113, 25% MHB2; synergy FICI ≤ 0.5, antagonism FICI ≥ 4; Table S6
Procedure: Synergy was tested in sterile 96-well plates (polystyrene F-bottom, Greiner Bio-One GmbH) using a total volume of 100 μL per well. […] Plates were incubated (37 °C, 20 h) and the optical density recorded at 595 nm using a microplate reader (Victor3, Perkin Elmer Inc., Waltham, MA, USA). The fractional inhibitory concentration index (FICI) was calculated by the equation FICI = […] = (A/MICA) + (B/MICB), where MICA/B are the MICs of an antimicrobial peptide (A) and one of the three tested antibiotics (B) alone and A and B are the MICs of combined antimicrobials. Synergy was defined as FICI ≤ 0.5, antagonism as FICI ≥ 4 and additive or indifference as FICI between 0.5 and 4.

SMILES | Ki [1] | Ki (nmol/L), competition with Cf-ARV-1502 [1] | Ki (nmol/L), competition with Cf-ARV-1502 ([1]; listed as kanamycin) | Checkerboard assay (FICI), antibiotic combined with peptide [2] | Ki (nmol/L), competition with Cf-ARV-1502 ([1]; listed as streptomycin)
O=C(N[C@H](CO)[C@H](O)c1ccc([N+](=O)[O-])cc1)C(Cl)Cl [Chloramphenicol] | 1700 ± 481 nmol/L |  |  |  | 
CC[C@H]1OC(=O)[C@H](C)[C@@H](O[C@H]2C[C@@](C)(OC)[C@@H](O)[C@H](C)O2)[C@H](C)[C@@H](O[C@@H]2O[C@H](C)C[C@H](N(C)C)[C@H]2O)[C@](C)(O)C[C@@H](C)C(=O)[C@H](C)[C@@H](O)[C@]1(C)O [Erythromycin] | 23 ± 1.6 nmol/L |  |  |  | 
NC[C@H]1O[C@H](O[C@H]2[C@H](O)[C@@H](O[C@H]3O[C@H](CO)[C@@H](O)[C@H](N)[C@H]3O)[C@H](N)C[C@@H]2N)[C@H](O)[C@@H](O)[C@@H]1O [Kanamycin, kanamycin sulfate] |  | no fit | did not affect the binding of Cf-ARV-1502 | neither synergistic nor antagonistic effects | 
[H]/N=C(/N)N[C@H]1[C@H](O)[C@@H](O)[C@H](O[C@@H]2O[C@@H](C)[C@](O)(C=O)[C@H]2O[C@@H]2O[C@@H](CO)[C@H](O)[C@@H](O)[C@@H]2NC)[C@@H](N/C(N)=N\[H])[C@@H]1O [Streptomycin] |  | no fit |  |  | did not affect the binding of Cf-ARV-1502
